Laboratory results as given in patent US8119632B2, “Bicyclic amide derivatives for enhancing glutamatergic synaptic responses” (Cortex Pharmaceuticals, Inc., priority 2007, dated 2012).

Columns and labels:
AMPA receptor = test: In vivo electrophysiology: amplitude of field EPSP in dentate gyrus of anesthetized animals; design: species or system rat; conditions: for In vivo Electrophysiology: % increase in the amplitude of the field EPSP in the dentate gyrus of rat: 10 mpk i.p.
Method: (§1) The electrophysiological effects of the invention compounds were tested in vivo in anesthetized animals according to the following procedures. Animals are maintained under anesthesia by phenobarbital administered using a Hamilton syringe pump. Stimulating and recording electrodes are inserted into the perforant path and dentate gyrus of the hippocampus, respectively. Once electrodes are implanted, a stable baseline of evoked responses are elicited using single monophasic pulses (100 μs pulse duration) delivered at 3/min to the stimulating electrode. Field EPSPs are monitored until a stable baseline is achieved (about 20-30 min), after which a solution of test compound is injected intraperitoneally and evoked field potentials are recorded. Evoked potentials were recorded for approximately 2 h following drug administration or until the amplitude of the field EPSP returns to baseline. In the latter instance, it is common that an iv administration is also carried out with an appropriate dose of the same test compound. Invention compounds were assayed in the in vivo electrophysiology assay described above and data for representative test compounds is shown in the Table.
The electrophysiological effects of invention compounds were tested in vivo in anesthetized animals according to the following procedures.
as §1, with “Animals” for “The electrophysiological effects of the invention compounds were tested in vivo in anesthetized animals according to the following procedures. Animals”, “are” for “were”, “compound.” for “compound. Invention compounds were assayed in the in vivo electrophysiology assay described above and data for representative test compounds is shown in the Table.”

Row | SMILES | In vivo Electrophysiology: % increase in the amplitude of the field EPSP in the dentate gyrus of rat (AMPA receptor) | melting point | increase in amplitude of the field EPSP (AMPA receptor; rat dentate gyrus, 50 mg/kg i.p.)
1 | O=C(c1ccc2nonc2c1)N1C2CCC1COC2 [Example 1, [2,1,3]-Benzoxadiazol-5-yl(3-oxa-8-azabicyclo[3.2.1]oct-8-yl)methanone] | 17% | 139 to 140 °C | –
2 | O=C(c1ccc2nonc2c1)N1C2CCCC1COC2 [Example 2, [2,1,3]-Benzoxadiazol-5-yl(3-oxa-9-azabicyclo[3.3.1]non-9-yl)methanone] | 16% | 128 to 130 °C | –
3 | O=C(c1ccc2nonc2c1)N1C2COCC1COC2 [Example 3, [2,1,3]-Benzoxadiazol-5-yl(3,7-dioxa-9-azabicyclo[3.3.1]non-9-yl)methanone] | 15% | 197 to 199 °C | –
4 | O=C(c1ccc2nccnc2c1)N1CCCCC1 [CX516, 1-(quinoxalin-6-ylcarbonyl)piperdine, reference compound] | – | – | 9%
